The source of these data is patent US20230265151A1, “GIP/GLP1 CO-AGONIST COMPOUNDS” (priority 2020, published 2023).

Holding throughout (type): cell-based
Experiment [1] addresses hGLP-1R (Homo sapiens, UniProt P43220). Put plainly: Functional cAMP formation (HTRF) in HEK-293 clonal cells expressing hGLP-1R, 0.1% bovine casein, without or with 1.0% human serum albumin. The note with it: for EC50: geometric mean. Also noted: expressed in transfected cells. An outline of the steps:
(§1)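 Cells were stimulated with peptide for 30 min at 37° C, then lysed in buffer carrying cAMP-d2 and anti-cAMP Eu3+-cryptate for a competitive HTRF read after at least 60 min at room temperature. The 665/620 nm ratio was converted to nM cAMP against a standard curve.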

Experiment [2] addresses T1, hGIPR (Homo sapiens, UniProt P48546).
T1 construct: expressed in transfected cells
T1 sequence (P48546 22-466): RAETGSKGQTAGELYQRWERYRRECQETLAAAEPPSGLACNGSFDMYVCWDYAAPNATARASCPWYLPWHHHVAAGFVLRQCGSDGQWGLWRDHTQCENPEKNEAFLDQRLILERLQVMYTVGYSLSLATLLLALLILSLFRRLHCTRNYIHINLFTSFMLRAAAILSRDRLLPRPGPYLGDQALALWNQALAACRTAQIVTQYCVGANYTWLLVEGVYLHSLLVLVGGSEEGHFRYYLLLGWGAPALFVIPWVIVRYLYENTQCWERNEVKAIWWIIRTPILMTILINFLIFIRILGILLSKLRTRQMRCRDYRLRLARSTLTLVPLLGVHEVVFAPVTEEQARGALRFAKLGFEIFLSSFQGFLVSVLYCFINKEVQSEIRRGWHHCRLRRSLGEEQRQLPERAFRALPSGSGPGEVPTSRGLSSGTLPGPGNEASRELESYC
In words: Functional cAMP formation (HTRF) in HEK-293 clonal cells expressing hGIPR, 0.1% bovine casein, without or with 1.0% human serum albumin. The note with it: for EC50: geometric mean. An outline of the steps:
as §1

Experiment [3] has as its target T2, hGCGR (Homo sapiens, UniProt P47871).
T2 construct: expressed in transfected cells
In words: Functional cAMP formation (HTRF) in HEK-293 clonal cells expressing hGCGR, 0.1% bovine casein, without or with 1.0% human serum albumin. The settings on record: geometric mean. The gist of the method: as §1

Setting [4] is: HEK293, 0.1% bovine casein and 1.0% human serum albumin, 37° C., percent of maximal response to GIP(1-42)NH2, read-out: hGIPR Emax, % ± SEM.
[5] abbreviates: HEK293, cAMP, 37° C., 0.1% bovine casein, percent of maximal response to GIP(1-42)NH2, arithmetic mean, read-out: hGIPR Emax, % ± SEM.
Setting [6] is: cAMP, 37° C., 0.1% bovine casein (no human serum albumin), read-out: hGIPR EC50, nM (SEM, n).
Setting [7] is: 0.1% bovine casein and 1.0% human serum albumin, 37° C., read-out: hGCGR EC50, nM (SEM, n).
The mark [8] stands for this setting: cAMP, 37° C., 0.1% bovine casein (no human serum albumin), read-out: hGCGR EC50, nM (SEM, n).

Structures are written as SMILES. Read-outs that look alike come from different tables or passages of the source.

hGLP-1R, sequence (P43220 24-463): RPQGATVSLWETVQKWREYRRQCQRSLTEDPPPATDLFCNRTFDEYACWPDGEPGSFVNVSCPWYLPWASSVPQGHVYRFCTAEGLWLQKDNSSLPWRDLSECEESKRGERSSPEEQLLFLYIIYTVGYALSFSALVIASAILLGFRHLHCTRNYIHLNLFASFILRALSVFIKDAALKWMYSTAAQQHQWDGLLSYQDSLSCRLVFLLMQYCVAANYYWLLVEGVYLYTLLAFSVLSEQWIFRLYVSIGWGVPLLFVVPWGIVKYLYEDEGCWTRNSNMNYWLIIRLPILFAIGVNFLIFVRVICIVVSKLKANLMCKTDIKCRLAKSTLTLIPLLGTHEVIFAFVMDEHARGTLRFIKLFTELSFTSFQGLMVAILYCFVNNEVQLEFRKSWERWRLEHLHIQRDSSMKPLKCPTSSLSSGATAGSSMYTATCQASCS
T2 sequence (P47871 26-477): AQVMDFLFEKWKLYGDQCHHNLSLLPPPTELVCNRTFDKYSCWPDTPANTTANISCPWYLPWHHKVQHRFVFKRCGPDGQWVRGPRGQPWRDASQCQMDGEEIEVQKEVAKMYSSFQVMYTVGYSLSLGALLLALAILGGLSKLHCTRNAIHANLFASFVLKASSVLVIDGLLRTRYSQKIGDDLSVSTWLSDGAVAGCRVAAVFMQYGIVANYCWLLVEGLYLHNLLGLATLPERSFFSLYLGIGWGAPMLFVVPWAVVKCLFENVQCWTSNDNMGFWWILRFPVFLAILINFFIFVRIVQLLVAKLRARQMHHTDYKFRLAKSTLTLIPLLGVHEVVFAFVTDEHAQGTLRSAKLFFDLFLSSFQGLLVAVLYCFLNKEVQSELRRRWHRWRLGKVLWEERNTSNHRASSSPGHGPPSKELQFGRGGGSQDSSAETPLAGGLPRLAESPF

For the molecule `CC[C@H](C)[C@H](NC(=O)[C@H](CC(C)C)NC(=O)[C@](C)(Cc1ccc(O)cc1)NC(=O)[C@@H](CCC(=O)O)NC(=O)[C@@H](NC(=O)[C@H](Cc1ccccc1)NC(=O)[C@H](CCCCNC(=O)COCCOCCNC(=O)COCCOCCNC(=O)CC[C@H](NC(=O)CCCCCCCCCOc1ccc(C(=O)O)cc1)C(=O)O)NC(=O)C(C)(C)NC(=O)[C@H](CCC(N)=O)NC(=O)[C@H](C)NC(=O)[C@H](CCCCNC(=O)COCCOCCNC(=O)COCCOCCNC(=O)CC[C@H](NC(=O)CCCCCCCCCOc1ccc(C(=O)O)cc1)C(=O)O)NC(=O)[C@H](CCCN)NC(=O)[C@H](CC(=O)O)NC(=O)[C@H](CC(C)C)NC(=O)[C@](C)(CC(C)C)NC(=O)[C@@H](NC(=O)C(C)(C)NC(=O)[C@H](Cc1ccncc1)NC(=O)[C@H](CC(=O)O)NC(=O)[C@H](CO)NC(=O)[C@@H](NC(=O)[C@](C)(Cc1ccccc1F)NC(=O)[C@@H](NC(=O)CNC(=O)[C@H](CCC(=O)O)NC(=O)C(C)(C)NC(=O)[C@@H](N)Cc1ccc(O)cc1)[C@@H](C)O)[C@@H](C)O)[C@@H](C)CC)[C@@H](C)CC)C(=O)N[C@@H](CCC(=O)O)C(=O)NCC(=O)NCC(=O)N1CCC[C@H]1C(=O)N[C@@H](CO)C(=O)N[C@@H](CO)C(=O)NCC(=O)N[C@@H](C)C(=O)N1CCC[C@H]1C(=O)N1CCC[C@H]1C(=O)N1CCC[C@H]1C(=O)N[C@@H](CO)C(N)=O` [Example 243], the maximal response (Emax) in experiment [1] (HEK293, read-out: hGLP-1R Emax, % ± SEM, 0.1% bovine casein and 1.0% human serum albumin, 37° C., percent of maximal response to GLP-1(7-36)NH2) is 114%; in experiment [1] (HEK293, read-out: hGLP-1R Emax, % ± SEM, percent of maximal response to GLP-1(7-36)NH2, 37° C., 0.1% bovine casein, arithmetic mean), 93.2%; in experiment [2] (HEK293, read-out: hGIPR Emax, % ± SEM, 0.1% bovine casein and 1.0% human serum albumin, 37° C., percent of maximal response to GIP(1-42)NH2) it was 90.5%. The EC50 in experiment [1] (hGLP-1R EC50, nM (SEM, n), cAMP, incubated at 37° C., 0.1% bovine casein (no human serum albumin)) is 0.86 nM; in experiment [2] (hGIPR EC50, nM (SEM, n), 0.1% bovine casein and 1.0% human serum albumin, 37° C.) it was 0.728 nM; in experiment [2] (hGIPR EC50, nM (SEM, n), cAMP, incubated at 37° C., 0.1% bovine casein (no human serum albumin)), 0.0154 nM; in experiment [3] (hGCGR EC50, nM (SEM, n), 0.1% bovine casein and 1.0% human serum albumin, 37° C.), above 9950 nM; in experiment [3] (hGCGR EC50, nM (SEM, n), cAMP, incubated at 37° C., 0.1% bovine casein (no human serum albumin)), above 9950 nM.
Regarding `CCCCCCCCCCCC(=O)N[C@@H](CCC(=O)NCCOCCOCC(=O)NCCOCCOCC(=O)NCCCC[C@H](NC(=O)[C@H](CCCN)NC(=O)[C@H](CC(=O)O)NC(=O)[C@H](CC(C)C)NC(=O)[C@](C)(CC(C)C)NC(=O)[C@@H](NC(=O)[C@H](CO)NC(=O)[C@H](Cc1ccc(OC)cc1)NC(=O)[C@H](CC(=O)O)NC(=O)[C@H](CO)NC(=O)[C@@H](NC(=O)[C@](C)(Cc1ccccc1F)NC(=O)[C@@H](NC(=O)CNC(=O)[C@H](CCC(=O)O)NC(=O)C(C)(C)NC(=O)[C@@H](N)Cc1ccc(O)cc1)[C@@H](C)O)[C@@H](C)O)[C@@H](C)CC)C(=O)N[C@@H](C)C(=O)N[C@@H](CCC(N)=O)C(=O)NC(C)(C)C(=O)N[C@@H](CCCCNC(=O)COCCOCCNC(=O)COCCOCCNC(=O)CC[C@H](NC(=O)CCCCCCCCCCC)C(=O)O)C(=O)N[C@@H](Cc1ccccc1)C(=O)N[C@H](C(=O)N[C@H](CCC(=O)O)C(=O)N[C@@](C)(Cc1ccc(O)cc1)C(=O)N[C@@H](CC(C)C)C(=O)N[C@H](C(=O)N[C@@H](CCC(=O)O)C(=O)NCC(=O)NCC(=O)N1CCC[C@H]1C(=O)N[C@@H](CO)C(=O)N[C@@H](CO)C(=O)NCC(=O)N[C@@H](C)C(=O)N1CCC[C@H]1C(=O)N1CCC[C@H]1C(=O)N1CCC[C@H]1C(=O)N[C@@H](CO)C(N)=O)[C@@H](C)CC)[C@@H](C)CC)C(=O)O` [Example 289], the maximal effect (Emax) in experiment [1] (HEK293, 0.1% bovine casein and 1.0% human serum albumin, 37° C., percent of maximal response to GLP-1(7-36)NH2, read-out: hGLP-1R Emax, % ± SEM) came out at 170%; in experiment [1] (HEK293, cAMP, 37° C., 0.1% bovine casein, percent of maximal response to GLP-1(7-36)NH2, arithmetic mean, read-out: hGLP-1R Emax, % ± SEM), 96.7%; in experiment [2] (setting [4]), 94.9%; in experiment [2] (setting [5]), 111%. The results for the EC50 in experiment [2] (setting [6]), in experiment [3] (setting [7]) and in experiment [3] (setting [8]) were 0.017 nM, above 9950 nM and above 9950 nM, respectively.
For the molecule `CC[C@H](C)[C@H](NC(=O)[C@H](CC(C)C)NC(=O)[C@](C)(Cc1ccc(O)cc1)NC(=O)[C@@H](CCC(=O)O)NC(=O)[C@@H](NC(=O)[C@H](Cc1ccccc1)NC(=O)[C@H](CCCCNC(=O)COCCOCCNC(=O)COCCOCCNC(=O)CCCCCCCCCCCCC(=O)O)NC(=O)C(C)(C)NC(=O)[C@H](CCC(N)=O)NC(=O)[C@H](C)NC(=O)[C@H](CCCCNC(=O)COCCOCCNC(=O)COCCOCCNC(=O)CCCCCCCCCCCCC(=O)O)NC(=O)[C@H](CCCN)NC(=O)[C@H](CC(=O)O)NC(=O)[C@H](CC(C)C)NC(=O)[C@](C)(CC(C)C)NC(=O)[C@@H](NC(=O)[C@H](CO)NC(=O)[C@H](CCc1ccc(O)cc1)NC(=O)[C@H](CC(=O)O)NC(=O)[C@H](CO)NC(=O)[C@@H](NC(=O)[C@](C)(Cc1ccccc1F)NC(=O)[C@@H](NC(=O)CNC(=O)[C@H](CCC(=O)O)NC(=O)C(C)(C)NC(=O)[C@@H](N)Cc1ccc(O)cc1)[C@@H](C)O)[C@@H](C)O)[C@@H](C)CC)[C@@H](C)CC)C(=O)N[C@@H](CCC(=O)O)C(=O)NCC(=O)NCC(=O)N1CCC[C@H]1C(=O)N[C@@H](CO)C(=O)N[C@@H](CO)C(=O)NCC(=O)N[C@@H](C)C(=O)N1CCC[C@H]1C(=O)N1CCC[C@H]1C(=O)N1CCC[C@H]1C(=O)N[C@@H](CO)C(N)=O` [Example 272], the EC50 is 0.388 nM in experiment [1] (cAMP, 37° C., 0.1% bovine casein (no human serum albumin), read-out: hGLP-1R EC50, nM (SEM, n)); 0.0264 nM in experiment [2] (setting [6]); above 9950 nM in experiment [3] (setting [7]); above 9950 nM in experiment [3] (setting [8]). Besides, the figures for the Emax in experiment [2] (setting [4]) and in experiment [2] (setting [5]) were 81.2% and 86%, respectively.
Regarding `CC[C@H](C)[C@H](NC(=O)[C@H](CC(C)C)NC(=O)[C@](C)(Cc1ccc(O)cc1)NC(=O)[C@@H](CCC(=O)O)NC(=O)[C@@H](NC(=O)[C@H](Cc1ccccc1)NC(=O)[C@H](CCC(=O)O)NC(=O)C(C)(C)NC(=O)[C@H](CCC(N)=O)NC(=O)[C@H](C)NC(=O)[C@H](CCCCNC(=O)COCCOCCNC(=O)COCCOCCNC(=O)COCCOCCNC(=O)CC[C@H](NC(=O)CCCCCCCCCCCCC(=O)O)C(=O)O)NC(=O)[C@H](CCCN)NC(=O)[C@H](CC(=O)O)NC(=O)[C@H](CC(C)C)NC(=O)[C@](C)(CC(C)C)NC(=O)[C@@H](NC(=O)[C@H](CO)NC(=O)[C@H](Cc1ccncc1)NC(=O)[C@H](CC(=O)O)NC(=O)[C@H](CO)NC(=O)[C@@H](NC(=O)[C@](C)(Cc1ccccc1F)NC(=O)[C@@H](NC(=O)CNC(=O)[C@H](CCC(=O)O)NC(=O)C(C)(C)NC(=O)[C@@H](N)Cc1ccc(O)cc1)[C@@H](C)O)[C@@H](C)O)[C@@H](C)CC)[C@@H](C)CC)C(=O)N[C@@H](CCC(=O)O)C(=O)NCC(=O)NCC(=O)N1CCC[C@H]1C(=O)N[C@@H](CO)C(=O)N[C@@H](CO)C(=O)NCC(=O)N[C@@H](C)C(=O)N1CCC[C@H]1C(=O)N1CCC[C@H]1C(=O)N1CCC[C@H]1C(=O)N[C@@H](CO)C(=O)N[C@@H](CCCCNC(=O)COCCOCCNC(=O)COCCOCCNC(=O)COCCOCCNC(=O)CC[C@H](NC(=O)CCCCCCCCCCCCC(=O)O)C(=O)O)C(N)=O` [Example 225], the EC50 is 51.6 nM in experiment [1] (0.1% bovine casein and 1.0% human serum albumin, 37° C., read-out: hGLP-1R EC50, nM (SEM, n)); 1.81 nM in experiment [2] (0.1% bovine casein and 1.0% human serum albumin, 37° C., read-out: hGIPR EC50, nM (SEM, n)); above 9950 nM in experiment [3] (setting [7]); above 9950 nM in experiment [3] (cAMP, incubated at 37° C., 0.1% bovine casein (no human serum albumin), read-out: hGCGR EC50, nM (SEM, n)). The Emax in experiment [1] (HEK293, percent of maximal response to GLP-1(7-36)NH2, 37° C., 0.1% bovine casein, arithmetic mean, read-out: hGLP-1R Emax, % ± SEM) was determined as 92.1%; in experiment [2] (setting [4]) it was 67.5%; in experiment [2] (HEK293, percent of maximal response to GIP(1-42)NH2, 37° C., 0.1% bovine casein, arithmetic mean, read-out: hGIPR Emax, % ± SEM), 105%.
